In patent publication US20080019916A1, “Methods and pharmaceuticals for treating muscle insulin resistance and related conditions” (University of Tasmania, priority 2001, published 2008):

Key:
anaesthetised rats = test: hyperinsulinaemic euglycaemic clamp in anaesthetised rats with 1-MX metabolism, glucose uptake and haemodynamic monitoring; assay type: in vivo, rat
Text: From present knowledge there would appear to be at least three possible mechanisms to account for insulin-mediated capillary recruitment in skeletal muscle. Firstly and most likely, insulin may act at insulin receptors on endothelial cells and an IRS-1/2, PI3-K pathway to activate eNOS to produce NO, which in turn permeates adjacent vascular smooth muscle cells to activate soluble guanylyl cyclase and lower the vascular tone of pre-capillary sphincters. In favour of this mechanism is the fact that this process is NO-dependent and is thus consistent with our preliminary data (FIG. 4). There is compelling evidence that insulin acts directly through insulin receptors on endothelial cells to control nutritive capillary flow in skin. Secondly, insulin may act at insulin receptors on the vascular smooth muscle cells (22) via IRS-1/2, PI3-K, NOS, cGMP, MBP (myosin bound phosphatase) sequence to cause vasorelaxation. This mechanism would be NO-dependent, free of endothelial cell involvement in signalling and attractive as TNFα is known to inhibit insulin signalling in vascular smooth muscle cells, although to date this has been restricted to the ERK1/2 activation step (23). This mechanism would also lead ultimately to the activation of guanylyl cyclase and the production of cyclic GMP. Thirdly, insulin may act at insulin receptors on skeletal muscle to activate glucose transport and metabolism by the IRS-1/2, PI3-K, GLUT4 pathway to produce a metabolite (e.g. adenosine) that permeates adjacent tissue to react with appropriate receptors on endothelial/vascular smooth muscle cells to result in vasorelaxation. […] FIG. 4. The effect of L-NAME on insulin mediated increases in hindleg glucose uptake (FIG. 4a) and 1-MX metabolism (FIG. 4b) was examined. Euglycemic clamp conditions (10 mU/min/kg) were conducted for 2 h. […] This latter mechanism would resemble that occurring in exercise where vasodilatory metabolite(s) are released locally by working muscle to facilitate local blood flow and would be inhibited by agents (e.g. glucosamine) that inhibit muscle glucose metabolism. All three mechanisms should be wortmannin sensitive as PI3-K is expected to be involved. A variant of this third mechanism is where a form of NOS is activated in skeletal muscle independently of glucose metabolism. NO could then permeate neighbouring tissue as above. The terminal half of this fourth possible mechanism should be simulated by AMPK activation with AICAR addition (24). Overall, given that the mechanism of capillary recruitment by insulin in rat muscle is NO-dependent (FIG. 4) and that NO acts by producing cyclic GMP, agents that might enhance capillary recruitment by insulin should be targeted to enhance insulin's production of NO or cyclic GMP. In principle, 1-methylxanthine (1-MX) is an exogenous substrate for an enzyme located predominantly in the nutritive capillary endothelial cells (much less so in the non-nutritive route and myocytes). Consequently, passage of blood borne 1-MX through the nutritive vascular route leads to its conversion to the product 1-methylurate (1-MU). Chromatographic analysis of arterial and venous samples for 1-MX and 1-MU together with the total blood flow rate over the muscle bed allows the calculation of 1-MX metabolism. A number of our studies using the perfused rat hindlimb have shown tight correlation between nutritive flow (or the proportion of nutritive/non-nutritive flow) and 1-MX metabolism (12,13). Assay of new drugs acting to increase capillary recruitment in the presence of endogenous or exogenous insulin. This is done in an optional two tier manner, firstly in anaesthetized rats using the hyperinsulinaemic euglycaemic clamp (14) and secondly, in human forearm using a localized hyperinsulinaemic euglycaemic clamp (17). The initial testing in rats is optional, but allows rapid identification of those agents likely to be effective in humans. […]

[1] = test system: skeletal muscle of the rat hindlimb; test: contrast enhanced ultrasound/microbubbles (CEU) measurement of capillary blood volume in rat hindlimb muscle; assay type: in vivo
Text: A second method was devised using the latest technologies in ultrasound. The ultrasound method relies on the increased echogenicity of albumin microbubbles which are continuously infused intravenously during data acquisition. The acoustic signal that is generated from the microbubbles when exposed to ultrasound produces tissue opacification which is proportional to the number of microbubbles within the ultrasound beam. Using harmonic pulsing methods essentially all microbubbles within the ultrasound beam are destroyed in response to a single pulse of high-energy ultrasound and an image is obtained. In the time interval between subsequent pulsing episodes, microbubbles flowing into the tissue are replenished within the beam and affect the intensity of the signal from the next high energy pulse. Repeating this process with pulse delays between 50 msec and 20 sec, the beam will be fully replenished and further increases in the time between each pulsing interval will not produce a change to tissue opacification. The rate of microbubble reappearance within the ultrasound beam provides an indication of capillary velocity and the degree of tissue opacification provides a measurement of capillary blood volume (CBV). Images are background-subtracted from images from a pulsing interval of 1000 ms which represents the replenishment of arteries and arterioles thus providing a measurement of capillary flow. The plateau tissue opacification (measured as videointensity) is the determination of capillary blood volume. Using this approach, changes in capillary blood volume in response to insulin and exercise have recently been assessed in the skeletal muscle of the rat hindlimb in vivo and compared to data obtained using 1-MX metabolism (ref 16; FIG. 1). FIG. 1. Comparison of the effect of saline, insulin (3 mU/min/kg, euglycemic clamp×120 min) or muscle contraction (2 Hz, 1 ms duration, monophasic square waves×10 min) on capillary blood volume as measured by microbubble videointensity using contrast enhanced ultrasound (FIG. 1a) or the hindlimb extraction of 1-MX (FIG. 1b) measured under identical conditions. […] Exercise is regarded by most physiologists as a “bench-mark” stimulus for capillary recruitment. […] A particular advantage of the ultrasound method is that it is relatively non-invasive and is suitable for human use (17). This opens up possibilities for its use in diagnosis in terms of impaired capillary recruitment in response to insulin and the monitoring of outcomes from therapeutic interventions that might act by increasing capillary recruitment. The ultrasound method relies on the increased echogenicity of albumin microbubbles that are continuously infused intravenously during data acquisition. […]

[2] = test system: skeletal muscle of the rat hindlimb; settings: physiologic doses of insulin (3 mU/min/kg clamp); cited from earlier work
[3] = insulin 3 mU/min/kg, anesthetized rat, before vs after, FIG. 7c
[4] = infused with sub-maximal physiologic dose of insulin, vs insulin alone, FIG. 5b

TNFα
effect on insulin-mediated capillary recruitment (anaesthetised rats; rats treated with the cytokine in vivo): completely block

insulin: hormone infused in euglycemic clamp
capillary blood volume (microbubble videointensity, CEU) ([1]; euglycemic insulin clamp 3 mU/min/kg, 120 min, vs baseline/saline, FIG. 1a): marked increases | plateau videointensity (A), microvascular volume [1, 3]: clearly higher | rate of microvascular filling (β) [1, 3]: no change | increase in capillary blood volume [2]: 2-3 fold

NC(=O)c1ncn([C@@H]2O[C@H](CO)[C@@H](O)[C@H]2O)c1N [AICAR, 5-aminoimidazole-4-carboxamide-1-β-D-ribofuranoside]
insulin-mediated hindleg glucose uptake (anaesthetised rats; infused with insulin, vs insulin alone, P<0.05, FIG. 6b): markedly enhanced | capillary recruitment as indicated by CEU (capillary blood volume) ([1]; infused alone, without insulin, FIG. 6a): recruited capillary flow on its own

COC(=O)[C@@H](N)CCCNC(=N)N[N+](=O)[O-] [L-NAME]
insulin-mediated increase in femoral blood flow (FBF) (anaesthetised rats; euglycemic clamp 10 mU/min/kg, 2 h, n=5): blocked the increase in FBF | mean arterial blood pressure (anaesthetised rats; euglycemic clamp 10 mU/min/kg, 2 h, n=5, raised from 100±4): 125±5 mmHg

CCCOc1ccccc1-c1nc(=O)c2[nH]nnc2[nH]1 [Zaprinast, 1,4-dihydro-5-(2-propoxyphenyl)-7H-1,2,3-triazolo(4,5-d)pyrimidin-7-one]
insulin-mediated capillary recruitment (hindleg 1-MX metabolism) (anaesthetised rats; infused with sub-maximal physiologic dose of insulin, vs insulin alone, FIG. 5a): significantly (P<0.05) enhanced | insulin-mediated glucose appearance (Ra) (anaesthetised rats; [4]): significantly (P<0.05) enhanced | insulin-mediated glucose disposal (Rd) (anaesthetised rats; [4]): significantly (P<0.05) enhanced
